Results on one compound are retold here after patent publication US20250041461A1, “[177LU] LUTETIUM-PSMA I&T COMPOSITION AND DOSIMETRY, KIT, METHOD OF MAKING, AND METHOD OF USING THEREOF” (Curium US LLC, priority 2023, published 2025).

The nature of data set [1]: Plasma PK modelling (gamma counting, bi-exponential fit), cycles 1 and 3. In kind it is in vivo, human. The protocol: PK plasma samples were collected at pre-Infusion, 1 h, 4 h, 24 h, 48 h, and 168 h, and counted for radioactivity. Blood samples were first centrifuged to extract plasma, and then the radioactivity in plasma was counted in a gamma counter.
Whole blood samples were collected as detailed in the protocol Schedule of Events i.e. pre-injection, and then at 1 h, 4 h, 24 h, 48 h, and 168 h post-injection. The samples were first centrifuged to separate plasma, and the radioactivity in the plasma was then measured using a gamma counter. Plasma concentrations were subsequently fitted with a bi-exponential function to derive outcome parameters such as the half-life and clearance rate of the radiopharmaceutical in the plasma.
Gamma-counted plasma samples were quality controlled using the same ^177Lu reference standard by measuring 0.5 ml of the 100 mL in the saline bag. For each patient, triplicates were made and measured right before all plasma samples were counted. A long-lived isotope was also counted to ensure that the protocol was properly followed by each site. Similarly to the imaging standard, when the gamma counter efficiency factor differed by more than 10% compared to that at site set-up, an investigation was launched to determine the cause of this variation, and if it reflected a difference in data acquisition.
Plasma data was fitted with a bi-exponential curve.
Blood samples were obtained for 15 out of 16 patients at cycle 3. Patients 12-004 had blood taken only at the 24 h timepoint and, therefore, was not included in the plasma PK analysis. Consistent with Cycle 1, the time-course of plasma concentrations was similar among the patients. The ranges of PK parameters obtained at cycle 3 were similar to those from Cycle 1 data (Table 6). Cycle 3 PK plasma modeling results (n=15)

The nature of data set [2]: Radiochemical purity of formulated ^177Lu-PSMA I&T solution by HPLC (stability over time). The data set is classed as physicochemical. How it is done: pH was estimated by pH paper. Radioactivity was measured in a dose calibrator. Radiochemical purity was determined by liquid chromatography with radioactivity detection and thin layer chromatography.
Radiochemical impurities are quantified by chromatographical methods (HPLC and TLC). Radiochemical purity determined by HPLC must not be less than 95.0%
The radiochemical purity and chemical properties (pH, impurities, visual properties) of [^177Lu]Lu-PSMA I&T in the formulation composition 3 were tested on the seven batches over a time span of 70 to 72 hours from the end-of-synthesis time. Stability samples of typical therapeutic dose radioactivity and volume were stored in different conditions covering typical storage, shipment and usage of the product, including temperatures ranging from +5° C. to +40° C.
Radiochemical purity of each solution was followed by HPLC up to 71-93 hours post-radiolabeling. All solutions were stored at 22.5° C.
Sample Analysis: The pH, radioactivity concentration (RAC), PSMA I&T content, and radiochemical purity (RCP) of the formulations were determined using a variety of analytical techniques described in the following sub-sections. A detailed record of the steps performed for each analysis can be found in Attachment 1-4.
Both the determination of the assay for PSMA I&T and related substances and the RCP of the formulations were determined via HPLC analysis. The system suitability of the instrument was established by triplicate injections of a 15 ppm PSMA I&T standard prior to sample analysis and a single 15 ppm check standard every 10 sample injections. A five-point standard curve of PSMA I&T concentrations between 0.5 and 25 ppm was used to determine the PSMA I&T concentration in the formulations.

Setting [3] is: Cycle 1, patient 42-030 excluded.

Values joined by “and” are separate entries in the source; they are usually repeats but may differ in a detail not shown here. Equal entries are not always repeated.

Regarding `O=C([O-])CC[C@H](NC(=O)N[C@@H](CCCCNC(=O)CCCCCCC(=O)NCCCC[C@@H](NC(=O)[C@@H](Cc1ccccc1)NC(=O)[C@@H](Cc1ccc(O)c(I)c1)NC(=O)CC[C@H](C(=O)[O-])N1CCN(CC(=O)[O-])CCN(CC(=O)[O-])CCN(CC(=O)[O-])CC1)C(=O)[O-])C(=O)[O-])C(=O)[O-].[177Lu+3].[H+].[H+].[H+].[H+].[H+]` [^177Lu-PSMA I&T, (3S,7S,26R,29R,32R,37R)-29-benzyl-32-(4-hydroxy-3-iodobenzyl)-5,13,20,28,31,34-hexaoxo-37-(4,7,10-tris(carboxymethyl)-1,4,7,10-tetraazacyclododecan-1-yl)-4,6,12,21,27,30,33-heptaazaheptatriacontane-1,3,7,26,37-pentacarboxylic acid; lutetium-177 (III)], in data set [1] (Cycle 1, individual patients), the “Peak Concentration Value” is 0.05 fIA/L (4×) and 0.04 fIA/L and 0.03 fIA/L. For the same compound, the “Time of Peak Concentration” value in data set [1] (Cycle 1, individual patients, time of first post-administration sample) is 56.00 min and 47.00 min and 53.00 min and 60.00 min (6×) and 51.00 min (2×) and 58.00 min and 61.00 min (2×) and 50.00 min and 63.00 min and 57.00 min and 55.00 min and 52.00 min (2×) and 68.00 min and 71.00 min and 65.00 min and 33.00 min and 40.00 min and 69.00 min. Further, in data set [1] (setting [3]), the “AUC Total, Mean” value is 22.77 fIA/L × min; the “AUC Total, max” value is recorded as 37.86 fIA/L × min; the “AUC Total, median” value is 20.84 fIA/L × min; the “AUC Total, min” value was determined as 3.07 fIA/L × min. Also, in data set [1] (setting [3]), the “Peak Concentration Value, Mean” value was 0.04 fIA/L; the “Peak Concentration Value, max” value turned out to be 0.07 fIA/L; the “Peak Concentration Value, median” value was found to be 0.04 fIA/L; the “Peak Concentration Value, min” value turned out to be 0.01 fIA/L. In addition, in data set [1] (setting [3]), the “Time of Peak Concentration” value was 33.00 min; the “Time of Peak Concentration, median” value is listed as 59.00 min; the “Vd, Mean” value amounted to 234.64 L; the “Vd, max” value was determined as 1365.03 L. Moreover, in data set [1] (setting [3]), the “Vd, median” value was 157.12 L and the “Vd, min” value was found to be 54.60 L. In addition, the “Time of Peak Concentration” value in data set [1] (cycle 3, max (n=15)) was found to be 68.00 min. For the same compound, the “Time of Peak Concentration” value in data set [1] (cycle 3, median (n=15)) is 60.00 min. Besides, in data set [1] (cycle 3, min (n=15)), the “Time of Peak Concentration” value was 55.00 min. Besides, the “radiochemical purity by HPLC” value in data set [2] (10 ml high RAC formulation, 42.5 mg/ml ascorbic acid, 0 hours post EOS) was “at least 99%”. The “radiochemical purity by HPLC” value in data set [2] (10 ml high RAC formulation, 42.5 mg/ml ascorbic acid, 46 hours post EOS) is “at least 93.3%”. Also, the “radiochemical purity by HPLC” value in data set [2] (20 ml low RAC formulation, 31 mg/ml ascorbic acid, 0 hours post EOS) is on record as “at least 99.1%”. Further, in data set [2] (decreased strength (0.5 GBq/mL), 72 hours post-end-of-synthesis), the radiochemical purity result is listed as “above 95%”. In data set [2] (low RAC solution of pH 4.5 and ascorbic acid concentration of 31 mg/ml), the “radiochemical stability among the formulations of Example 3” value is “highest radiochemical stability”.
